# Measured values: EP4603105A1, “PHARMACEUTICAL COMPOSITION CONTAINING CYCLIC COMPOUND HAVING SELECTIVE KRAS INHIBITORY EFFECT AGAINST HRAS AND NRAS” (CHUGAI SEIYAKU KABUSHIKI KAISHA, priority 2022, dated 2024)
# Like-named read-outs stand apart in the source and are kept apart here.
# Legend:
# [1] = target: GDP-bound KRAS wild-type protein (Homo sapiens, UniProt P01116); assay: Binding to KRAS by surface plasmon resonance (SPR), dissociation constant KD; conditions: Single Cycle Kinetics
# How it was run: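 GDP-loaded biotinylated Avi-tag RAS proteins (E. coli-expressed) captured on a Biotin CAPture chip at ~100–300 RU; single-cycle kinetics at 30°C, 100 µL/min, 75 s injections of rising compound concentrations. HBS pH 7.4 running buffer with 1 mM DTT, 10 mM MgCl2, 10 µM GDP, 4% DMSO. KD from 1:1 binding fit.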
# [2] = target: GDP-bound NRAS wild-type protein (Homo sapiens, UniProt P01111); assay: Binding to NRAS by surface plasmon resonance (SPR), KD and KD ratio to KRAS
# How it was run: (§1)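 Captured GDP-RAS (~100–300 RU) was exposed to increasing compound concentrations, 75 s per step, in running buffer with 10 µM GDP, 10 mM MgCl2 and 4% DMSO at pH 7.4.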
# HRAS wild-type protein = HRAS wild-type protein (Homo sapiens, UniProt P01112); assay: Binding to HRAS by surface plasmon resonance (SPR), KD and KD ratio to KRAS
# How it was run: as §1
# [3] = test system: human lung cancer strain NCI-H441; assay: NCI-H441 cell proliferation inhibitory activity (CellTiter-Glo, 4 days); format: cell-based; conditions: read-out: NCl-H441 IC50
# How it was run: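 Step one: dispense the test compound in serial DMSO dilutions. Step three: add the reagent and measure […].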
# [4] = ratio of KD for GDP-bound NRAS wild-type protein to KD for KRAS
# [5] = ratio of KD for HRAS wild-type protein to KD for KRAS
# [6] = ratio of KD with respect to GDP-bound NRAS wild-type protein to KD with respect to KRAS
# [7] = ratio of KD with respect to HRAS wild-type protein to KD with respect to KRAS
# [8] = 50% proliferation inhibitory concentration, four days
# Sequence of GDP-bound KRAS wild-type protein (P01116 1-188 isoform P01116-2): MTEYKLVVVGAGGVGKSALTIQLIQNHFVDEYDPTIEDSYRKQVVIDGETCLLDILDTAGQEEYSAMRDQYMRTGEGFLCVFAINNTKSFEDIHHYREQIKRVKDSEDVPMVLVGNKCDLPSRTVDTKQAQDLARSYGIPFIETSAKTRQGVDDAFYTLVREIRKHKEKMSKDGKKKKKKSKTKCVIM
# Sequence of GDP-bound NRAS wild-type protein (P01111 whole entry): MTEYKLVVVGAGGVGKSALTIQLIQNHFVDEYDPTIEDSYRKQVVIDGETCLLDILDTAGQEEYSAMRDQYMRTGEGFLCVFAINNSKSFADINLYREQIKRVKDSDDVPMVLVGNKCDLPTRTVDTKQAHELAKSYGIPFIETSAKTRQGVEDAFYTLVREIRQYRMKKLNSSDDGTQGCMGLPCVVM
# Sequence of HRAS wild-type protein (P01112 whole entry): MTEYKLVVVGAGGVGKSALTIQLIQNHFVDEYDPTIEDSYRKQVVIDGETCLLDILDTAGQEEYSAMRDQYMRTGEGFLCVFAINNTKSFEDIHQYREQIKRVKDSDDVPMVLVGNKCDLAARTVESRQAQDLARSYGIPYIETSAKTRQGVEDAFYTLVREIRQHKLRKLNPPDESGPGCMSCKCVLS
SMILES,Kd [1] [nM],"IC50 ([3]; NCI-H441 cells, 4 days) [nM]",Kd ([1]; 1:1 binding model) [nM],"IC50 [3, 8] [nM]","NRAS /KRAS [2, 4]",HRAS /KRAS (HRAS wild-type protein; [5]),"NRAS /KRAS [2, 6]",HRAS /KRAS (HRAS wild-type protein; [7])
CCO[C@@H]1C[C@H]2C(=O)NC3(CCC3)C(=O)N(C)[C@@H](C3CCCC3)C(=O)N(C)[C@H](C(=O)N3CCOCC3)CC(=O)N(C)[C@@H](CC(C)C)C(=O)N[C@@H]([C@@H](C)CC)C(=O)N3CC[C@H]3C(=O)N(C)[C@H]3C[C@@H](C)[C@@H](C)CN(C3=O)[C@@H](Cc3ccc(C(F)(F)F)cc3)C(=O)N(C)CC(=O)N[C@@H](CCc3ccc(C(F)(F)F)c(Cl)c3)C(=O)N2C1 [PP1361],,,0.15,6.2,,,A (a compound having 10 or more and less than 20 is denoted as A),B (a compound having 3 or more and less than 10 is denoted as B)
CC[C@H](C)[C@@H]1NC(=O)[C@H](CC)N(C)C(=O)C[C@@H](C(=O)N(C)C)N(C)C(=O)[C@H](C2CCCC2)N(C)C(=O)C2(CCC2)NC(=O)[C@@H]2C[C@H](F)CN2C(=O)[C@H](CCc2cc(F)c(C(F)(F)F)c(F)c2)NC(=O)CN(C)C(=O)[C@H](Cc2ccc(C(F)(F)F)cc2)N2CC/C=C\C[C@@H](C2=O)N(C)C(=O)CN(C)C1=O [PP1132],,,0.066,86.8,,,A (a compound having 10 or more and less than 20 is denoted as A),B (a compound having 3 or more and less than 10 is denoted as B)
CCC[C@H]1C(=O)N[C@@H]([C@@H](C)CC)C(=O)N(C)CC(=O)N(C)[C@H]2C/C=C\CCN(C2=O)[C@@H](Cc2ccc(C(F)(F)F)cc2)C(=O)N(C)CC(=O)N[C@@H](CCc2ccc(C(F)(F)F)c(Cl)c2)C(=O)N2CC[C@H](OC)[C@H]2C(=O)N(C)C2(CCC2)C(=O)N(C)[C@@H](C2CCCC2)C(=O)N(C)[C@H](C(=O)N(C)C)CC(=O)N1C [PP3231],0.064,7.4,,,A (a compound having 10 or more and less than 20 is denoted as A),A (a compound having 10 or more and less than 20 is denoted as A),,
CCO[C@@H]1C[C@H]2C(=O)NC3(CCCC3)C(=O)N(C)[C@@H](C3CCCC3)C(=O)N(C)[C@H](C(=O)N(C)C)CC(=O)N(C)[C@@H](CC)C(=O)N[C@@H]([C@@H](C)CC)C(=O)N(C)CC(=O)N(C)[C@H]3C[C@@H](C)[C@@H](C)CN(C3=O)[C@@H](Cc3ccc(C(F)(F)F)cc3)C(=O)N(C)CC(=O)N[C@@H](CCc3ccc(C(F)(F)F)c(Cl)c3)C(=O)N2C1 [PP1358],,,0.03,4.1,,,A (a compound having 10 or more and less than 20 is denoted as A),B (a compound having 3 or more and less than 10 is denoted as B)

# The next lines start with results.
Kd [1] [nM],"IC50 ([3]; NCI-H441 cells, 4 days) [nM]",Kd ([1]; 1:1 binding model) [nM],"IC50 [3, 8] [nM]",SMILES,"NRAS /KRAS [2, 4]",HRAS /KRAS (HRAS wild-type protein; [5]),"NRAS /KRAS [2, 6]",HRAS /KRAS (HRAS wild-type protein; [7])
0.6,38.6,,,CCO[C@@H]1C[C@H]2C(=O)NC3(CCCC3)C(=O)N(C)[C@@H](C3CCCC3)C(=O)N(C)[C@H](C(=O)N(C)C)CC(=O)N(C)[C@@H]([C@@H](C)OC)C(=O)N[C@@H]([C@@H](C)CC)C(=O)N(C3CC3)CC(=O)N(C)[C@H]3C/C=C\CCN(C3=O)[C@@H](Cc3ccc(C)cc3)C(=O)N(C)CC(=O)N[C@@H](CCc3cc(F)c(C(F)(F)F)c(F)c3)C(=O)N2C1 [PP3482],A (a compound having 10 or more and less than 20 is denoted as A),A (a compound having 10 or more and less than 20 is denoted as A),,
1.8,81.2,,,CCCO[C@@H]1C[C@H]2C(=O)NC3(CC(C)(C)C3)C(=O)N(C)[C@@H](C3CCCC3)C(=O)N(C)[C@H](C(=O)N(C)CC)CC(=O)N[C@@H](COCC)C(=O)N[C@@H]([C@@H](C)CC)C(=O)N3CCC[C@H]3C(=O)N(C)[C@H]3C/C=C\CCN(C3=O)[C@@H](Cc3ccc(C)cc3)C(=O)N(C)CC(=O)N[C@@H](CCc3cc(F)c(C(F)(F)F)c(F)c3)C(=O)N2C1 [PP3423],A (a compound having 10 or more and less than 20 is denoted as A),A (a compound having 10 or more and less than 20 is denoted as A),,
